This is an account of results in US9217150B2, “NRPS-PKS gene cluster and its manipulation and utility” (SINTEF TTO AS, priority 2008, dated 2015).

The assay relates to strain DSM 21069 (isolate MP28-13). Nature of the assay: Antibiotic resistance characteristics of strain DSM 21069. It is filed as cell-based, Streptomyces.

On to Neomycin, for which the Antibiotic resistance entry reads like this: (antibiotic at 5 μg/ml) “sensitive”; (antibiotic at 10 μg/ml) “sensitive”; (antibiotic at 20 μg/ml) “sensitive”; (antibiotic at 50 μg/ml) “sensitive”.

For the compound `[H]/N=C(/N)N[C@H]1[C@H](O)[C@@H](O)[C@H](O[C@@H]2O[C@@H](C)[C@](O)(C=O)[C@H]2O[C@@H]2O[C@@H](CO)[C@H](O)[C@@H](O)[C@@H]2NC)[C@@H](N/C(N)=N\[H])[C@@H]1O` [Streptomycin], the Antibiotic resistance result runs as follows: (antibiotic at 5 μg/ml) “resistant”; (antibiotic at 10 μg/ml) “resistant”; (antibiotic at 20 μg/ml) “resistant”; (antibiotic at 50 μg/ml) “resistant”.

For the compound `CO[C@H]1/C=C/O[C@@]2(C)Oc3c(C)c(O)c4c(O)c(cc(O)c4c3C2=O)NC(=O)/C(C)=C\C=C\[C@H](C)[C@H](O)[C@@H](C)[C@@H](O)[C@@H](C)[C@H](OC(C)=O)[C@@H]1C` [Rifamycin], the Antibiotic resistance entry was “resistant” (antibiotic at 5 μg/ml), “resistant” (antibiotic at 10 μg/ml), “resistant” (antibiotic at 20 μg/ml) and “sensitive” (antibiotic at 50 μg/ml).

`CN[C@@H]1[C@@H](O[C@H]2O[C@H](CO)[C@@H](N)[C@H](O)[C@H]2O)OC2C[C@@H](N)[C@@H](O[C@H]3[C@H](O)[C@@H](O)[C@H](N)C[C@@H]3N)OC2[C@@H]1O` (some centres unmarked) [Apramycin]: the Antibiotic resistance result is, setting by setting: (antibiotic at 5 μg/ml) “sensitive”; (antibiotic at 10 μg/ml) “sensitive”; (antibiotic at 20 μg/ml) “sensitive”; (antibiotic at 50 μg/ml) “sensitive”.

Consider `C=C(NC(=O)C(=C)NC(=O)c1csc(C2=N[C@@H]3c4csc(n4)[C@H]4NC(=O)c5csc(n5)[C@H]([C@](C)(O)[C@@H](C)O)NC(=O)[C@H]5CSC(=N5)/C(=C/C)NC(=O)[C@H]([C@@H](C)O)NC(=O)c5csc(n5)[C@]3(CC2)NC(=O)[C@H](C)NC(=O)C(=C)NC(=O)[C@H](C)NC(=O)[C@H]([C@@H](C)CC)N[C@@H]2C=Cc3c([C@H](C)O)cc(nc3[C@H]2O)C(=O)O[C@@H]4C)n1)C(N)=O` [Thiostrepton], for which the Antibiotic resistance entry is “sensitive” (antibiotic at 5 μg/ml), “sensitive” (antibiotic at 10 μg/ml), “sensitive” (antibiotic at 20 μg/ml) and “sensitive” (antibiotic at 50 μg/ml).
